# Source: patent US5464754A, “Assay and substrate for arachidonoyl-specific phospholipase A2” (The Regents of the University of California, priority 1993, dated 1995)
# B1: cPLA: 85 kDa arachidonic acid specific enzyme; purified, recombinant human (protein, UniProt P47712 1-749, looked up)
# Cytosolic phospholipase A2: MSFIDPYQHIIVEHQYSHKFTVVVLRATKVTKGAFGDMLDTPDPYVELFISTTPDSRKRTRHFNNDINPVWNETFEFILDPNQENVLEITLMDANYVMDETLGTATFTVSSMKVGEKKEVPFIFNQVTEMVLEMSLEVCSCPDLRFSMALCDQEKTFRQQRKEHIRESMKKLLGPKNSEGLHSARDVPVVAILGSGGGFRAMVGFSGVMKALYESGILDCATYVAGLSGSTWYMSTLYSHPDFPEKGPEEINEELMKNVSHNPLLLLTPQKVKRYVESLWKKKSSGQPVTFTDIFGMLIGETLIHNRMNTTLSSLKEKVNTAQCPLPLFTCLHVKPDVSELMFADWVEFSPYEIGMAKYGTFMAPDLFGSKFFMGTVVKKYEENPLHFLMGVWGSAFSILFNRVLGVSGSQSRGSTMEEELENITTKHIVSNDSSDSDDESHEPKGTENEDAGSDYQSDNQASWIHRMIMALVSDSALFNTREGRAGKVHNFMLGLNLNTSYPLSPLSDFATQDSFDDDELDAAVADPDEFERIYEPLDVKSKKIHVVDSGLTFNLPYPLILRPQRGVDLIISFDFSARPSDSSPPFKELLLAEKWAKMNKLPFPKIDPYVFDREGLKECYVFKPKNPDMEKDCPTIIHFVLANINFRKYRAPGVPRETEEEKEIADFDIFDDPESPFSTFNFQYPNQAFKRLHDLMHFNTLNNIDVIKEAMVESIEYRRQNPSRCSVSLSNVEARRFFNKEFLSKPKA
# How the values were obtained:
# cPLA enzyme [1] = assay: Effect of solvent and diluent components on cPLA enzyme activity; type: biochemical, human
# Method: The substrate diluent generally comprises any suitable assay buffer system, such as HEPES, Tris-HCL, Tris-maleate, glycine, or the like. […] A suitable diluent comprises about 25% -50% glycerol, and preferably about 30% glycerol.
# The thiosubstrate diluent also comprises an amount of detergent sufficient to solubilize! the substrate. One suitable detergent is Triton-X 100. Triton-X 100 is preferably used at concentrations of about 1-5 mM with about 1-3 mM thiosubstrate.
# The Ca^2+ can be provided by the addition of CaCl2 to the diluent, preferably at concentrations greater than 1 mM, and more preferably at a concentration of about 10 mM.
# The effectiveness of a phospholipase A2 enzyme inhibitor can be measured by adding the inhibitor to the substrate solution prior to the incubation with enzyme. […] Therefore, approximately 10 μl inhibitor dissolved in DMSO can be added to 200 μl substrate solution prior to the addition of enzyme to test the effectiveness of the inhibitor against cPLA. […] Thus, appropriate blanks should be run under each condition tested.
# [2] = system: cPLA2 (purified, recombinant human); assay: Microtiterplate assay for cPLA2 using thioPC substrate; type: biochemical
# Method: The enzyme activity of CPLA2 was assayed using a ThioPC/Triton X-100 substrate solution. An appropriate volume of ThioPC in chloroform solution was evaporated to dryness under a stream of N2. Triton X-100 (8 mM) in 2× assay buffer (160 mM HEPES, pH 7.4, 300 mM NaCl, 20 mM CaC2, 2 mg/ml BSA) was added to the dried lipid in one-half the desired final volume to give a 2-fold concentrated substrate solution. This solution was bath sonicated 1 min to loosen dried ThioPC from the walls of the vial and then probe sonicated On ice, 20 sec on, 20 sec off for 3 min. The solution was then warmed to 40° C. and warm glycerol equivalent to 30% of the final volume was added. The solution was then brought to the desired final volume with deionized H2 O. The final assay contained 2 mM ThioPC, 4 mM Triton! X-100 and 30% glycerol in 80 mM HEPES, pH 7.4, 150 mM NaCl, 10 mM CaCl2 and 1 mg/ml BSA.
# The substrate was then aliquotted, in 200 μl increments, into the wells of a 96-well plate and equilibrated for 5 min at 37° C. To initiate the reaction, 500 ng cPLA2 (purified, recombinant human), in a 5 μl volume of 1× assay buffer, was added to the wells, the plate was shaken 20 seconds on high to mix, and then incubated for 60 min at 37° C. […]
# After 60 min, 10 μl of a 25 mM DTNB/475 mM EGTA mixture was added to all substrate containing wells to quench the reaction and initiate the color development. […] After adding the DTNB/EGTA, the plate was once again shaken 20 sec on high and allowed to incubate for an additional 3 min to give the DTNB chromophore time to fully develop prior to reading the plate. The absorbance was measured using a dual wavelength option (405 nm -620 nm) to correct for light scattering. […] The average absorbance of the blanks was subtracted from that of the enzyme containing wells to correct for the absorbance due to the substrate, DTNB, and EGTA. The difference in absorbance was used to calculate enzyme activity. […] Specific activity was calculated using ε405 for DTNB of 12,800 M^- cm^-1 (Yu et al supra) and a path length of 0.47 cm for 215 μl final total volume. […]
# cPLA enzyme [3] = assay: Sensitivity of cPLA enzyme to thiol-sensitive reagents; type: biochemical, human; settings: in the presence of DTNB (Ellman's reagent)
# Method: The sPLA enzymes are very stable, containing 7 disulfide bonds. […] In contrast, cPLA is an intracellular enzyme and assays and purifications are often run in the presence of reduced thiols, such as 2-mercaptoethanol or dithiothreitol (Kramer et al., supra; Clark, J. D., et al., supra).
# After an incubation period, the enzyme/substrate reaction is quenched by the addition of a quenching reagent and a thiol-sensitive reagent. As used herein, the term "quenching reagent" refers to any compound capable of stopping the enzymatic activity of phospholipase A2 enzyme. Suitable quenching reagents are Ca^2+ chelators such as ethylene glycol bis(oxyethylenenitrilo) tetraacetic acid (EGTA) and the like, or high concentrations of a detergent such as 30 mM Triton X-100. The thiol-sensitive reagent can be any reagent capable of releasing a chromophore such as DTNB or 4,4'-dithiodipyridine (DTP). DTNB is a preferred thiol-sensitive reagent because its chromophore can be detected at […], which is available to most microtiterplate readers.
molecule,measurement,setting,value
OCC(O)CO [glycerol],effect of glycerol on enzyme activity,"cPLA enzyme [1]; about 70% glycerol, diluent too viscous",enzyme activity is increased
same,effect of glycerol on enzyme activity,cPLA enzyme [1]; glycerol as component of substrate diluent,Enzyme activity increases
"CCCCC/C=C\C/C=C\C/C=C\C/C=C\CCCC(=O)S[C@H](COCCCCCCCCCCCCCCCC)COP(=O)([O-])OCC[N+](C)(C)C [thioPC, 1-hexadecyl-2-arachidonoylthio-2-deoxy-sn-glycero-3-phosphorylcholine]",enzyme activity as a function of time: more linear phase,"[2]; 2 mM ThioPC, 4 mM Triton X-100, 30% glycerol, pH 7.4, 37° C., FIG. 3",5 to 60 min
same,enzyme activity as a function of time: burst phase,"[2]; 2 mM ThioPC, 4 mM Triton X-100, 30% glycerol, pH 7.4, 37° C., FIG. 3, short burst of activity",5 min
Triton X-100,effect of Triton X-100 on stability of cPLA activity,cPLA enzyme [1]; Triton X-100 at about 1-5 mM with about 1-3 mM thiosubstrate,more stable
C[S+](C)[O-] [DMSO],effect of DMSO on enzyme activity,cPLA enzyme [1]; DMSO:enzyme/substrate ratio of about 1:20,unaffected
"O=C(O)c1cc(SSc2ccc([N+](=O)[O-])c(C(=O)O)c2)ccc1[N+](=O)[O-] [DTNB, 5,5'-dithiobis(2-nitrobenzoic acid)]",enzymatic activity of cPLA in the presence of thiol-sensitive reagent,cPLA enzyme [3],enzymatic activity was lost
B1,range of enzyme amount with linear activity,"[2]; FIG. 2, thiosubstrate assay, listed as cytosolic phospholipase A2",0.05 to 1.0 µg
